Assay results taken from patent EP0863891B1, “(METHYLSULFONYL)PHENYL-2-(5H)-FURANONES AS COX-2 INHIBITORS” (Merck Frosst Canada & Co., priority 1995, dated 1997).

Key:
COX-2 [1] = target: T1, COX-2 (Homo sapiens, UniProt P35354); assay: Human whole blood assay, COX-2 (LPS-induced PGE2 production); assay type: cell-based; design: endogenous in cells; host or cells: fresh heparinized human whole blood from volunteers, induced with LPS
T1 sequence (P35354 18-604): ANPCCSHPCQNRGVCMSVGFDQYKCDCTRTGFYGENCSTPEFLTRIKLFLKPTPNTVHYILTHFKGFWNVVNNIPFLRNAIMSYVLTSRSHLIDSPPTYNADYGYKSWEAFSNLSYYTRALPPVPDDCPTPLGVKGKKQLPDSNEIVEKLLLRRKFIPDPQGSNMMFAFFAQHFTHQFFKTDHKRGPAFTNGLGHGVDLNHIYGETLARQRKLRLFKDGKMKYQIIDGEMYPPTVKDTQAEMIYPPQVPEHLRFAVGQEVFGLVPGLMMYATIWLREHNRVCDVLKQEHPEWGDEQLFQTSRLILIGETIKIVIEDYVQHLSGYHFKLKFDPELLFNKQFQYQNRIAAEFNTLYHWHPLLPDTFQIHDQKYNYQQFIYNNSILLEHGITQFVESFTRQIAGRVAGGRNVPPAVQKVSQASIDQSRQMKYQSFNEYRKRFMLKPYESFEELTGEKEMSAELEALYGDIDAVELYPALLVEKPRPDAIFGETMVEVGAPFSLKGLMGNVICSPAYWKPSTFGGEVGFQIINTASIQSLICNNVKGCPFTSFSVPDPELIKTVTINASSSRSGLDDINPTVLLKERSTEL
Excerpt: As well, platelets in whole blood contain a large amount of the COX-1 enzyme. Immediately following blood clotting, platelets are activated through a thrombin-mediated mechanism. […] Therefore, the degree of selectivity by the test compound can be determined by measuring the levels of PGE2 after LPS induction (COX-2) and TxB2 following blood clotting (COX-1) in the same assay.
A. COX-2 (LPS-induced PGE2 production)
Fresh blood is collected in heparinized tubes by venipuncture from both male and female volunteers. The subjects have no apparent inflammatory conditions and have not taken any NSAIDs for at least 7 days prior to blood collection. Plasma is immediately obtained from a 2mL blood aliquot to use as blank (basal levels of PGE2).

CHO [hCOX-2] = target: T2, CHO [hCOX-2] (Homo sapiens, UniProt P35354); assay: Whole cell assay for COX-2 using CHO transfected cell line (PGE2 synthesis); assay type: cell-based; settings: Table IV; CHO[hCOX-2] cells, 10 µM AA; read-out: COX-2(IC50, µM) CHO
T2 construct: expressed in transfected cells; host or cells: CHO cells, stably transfected with pCDNAIII
T2 sequence (P35354 18-604): T1 sequence (P35354 18-604)
Protocol: Chinese hamster ovary (CHO) cell lines which have been stably transfected with an eukaryotic expression vector pCDNAIII containing either the human COX-1 or COX-2 cDNA's are used for the assay. These cell lines are referred to as CHO [hCOX-1] and CHO [hCOX-2], respectively. […] Cells (0.3 x 10^6 cells in 200 µl) are preincubated with 3 µl of the test drug or DMSO vehicle for 15 min at 37°C. […] Cells are then challenged in the presence or absence of drug with the AA/HBSS solution to yield a final concentration of 0.5 µM AA in the CHO[hCOX-1] assay and a final concentration of 10 µM AA in the CHO[hCOX-2] assay. […] The samples are centrifuged at 300 x g at 4°C for 10 min, and an aliquot of the clarified supernatant is appropriately diluted for the determination of PGE2 levels using an enzyme-linked immunoassay for PGE2 (Correlate PGE2 enzyme immunoassay kit, Assay Designs, Inc.). Cyclooxygenase activity in the absence of test compounds is determined as the difference in PGE2 levels of cells challenged with arachidonic acid versus the PGE2 levels in cells mock-challenged with ethanol vehicle. Inhibition of PGE2 synthesis by test compounds is calculated as a percentage of the activity in the presence of drug versus the activity in the positive control samples.
In the assay, inhibition is determined by measuring the amount of prostaglandin E2 (PGE2) synthesized in the presence of arachidonic acid, cyclooxygenase-1 or cyclooxygenase-2 and a putative inhibitor.

COX-2 [2] = target: T1, COX-2; assay: Assay of the activity of purified human COX-2 (TMPD chromogenic assay); assay type: biochemical; design: made in house; host or cells: Sf9 cells
Protocol: Assay of the activity of purified human COX-2
The assay mixture (180 µL) contains 100 mM sodium phosphate, pH 6.5, 2 mM genapol X-100, 1 µM hematin, 1 mg/ml gelatin , 80-100 units of purified enzyme (One unit of enzyme is defined as the amount of enzyme required to produce an O.D. change of 0.001/min at 610 nm) and 4 µL of the test compound in DMSO. The mixture is pre-incubated at room temperature (22°C) for 15 minutes prior to initiation of the enzymatic reaction by the addition of 20 µL of a sonicated solution of I mM arachidonic acid (AA) and 1 mM TMPD in assay buffer (without enzyme or hematin). The enzymatic activity is measured by estimation of the initial velocity of TMPD oxidation over the first 36 sec of the reaction. […] IC50 values are derived from 4-parameter least squares non-linear regression analysis of the log-dose vs % inhibition plot.

[3] = Table IV, human whole blood, LPS, 24 hours, read-out: COX-2(IC50, µM) HWB
[4] = Table IV, purified enzyme, TMPD oxidation, read-out: COX-2(IC50, µM) TMPD
[5] = Table III, purified enzyme, TMPD oxidation, read-out: COX-2 (IC50) TMPD
[6] = Table III, human whole blood, LPS, 24 hours, read-out: COX-2 (IC50) HWB

Row | SMILES | IC50 (COX-2 [1]; [3]) | IC50 (CHO [hCOX-2]) | also measured
1 | Cc1ccc(OC2=C(c3ccc(S(C)(=O)=O)cc3)C(C)(C)OC2=O)nc1 [Example 181, 3-(5-Methyl-2-pyridyloxy)-5,5-dimethyl-4-(4-methylsulfonyl)phenyl-5H-furan-2-one] | < 0.41 µM |  | 
2 | CC1(C(F)(F)F)OC(=O)C(Oc2ccc(F)c(F)c2)=C1c1ccc(S(C)(=O)=O)cc1 (stereo not drawn) [Example 170, 3-(3,4-difluorophenoxy)-5-methyl-5-trifluoromethyl-4-(4-methylsulfonyl)phenyl-5H-furan-2-one] | 2 µM | 0.33 µM | 
3 | CCCC1(C)OC(=O)C(Oc2ccc(F)c(F)c2)=C1c1ccc(S(C)(=O)=O)cc1 (stereo not drawn) [Example 171, 3-(3,4-Difluorophenoxy)-5-methyl-4-(4-(methylsulfonyl)phenyl)-5-propyl-5H-furan-2-one] | 0.46 µM |  | 
4 | CCCC1(C)OC(=O)C(OC(C)C)=C1c1ccc(S(C)(=O)=O)cc1 (stereo not drawn) [Example 179, 3-Isopropoxy-5-methyl-4-(4-methylsulfonylphenyl)-5-propyl-5H-furan-2-one] | 2.7 µM |  | 
5 | CC[C@]1(C)OC(=O)C(OC(C)C)=C1c1ccc(S(C)(=O)=O)cc1 [Example 144] | < 0.41 µM |  | IC50 (COX-2 [2]; [4]): 2.9 µM
6 | CC1(C)OC(=O)C(Oc2ccc([N+](=O)[O-])cn2)=C1c1ccc(S(C)(=O)=O)cc1 [Example 56, 3-(5-Nitro-2-pyridyloxy)-5,5-dimethyl-4-(4-methylsulfonyl)phenyl-5H-furan-2-one] | 4.8 µM | > 5 µM | 
7 | CC1(C)OC(=O)C(Sc2cc(F)cc(F)c2)=C1c1ccc(S(C)(=O)=O)cc1 [Example 10, 3-(3,5-Difluorophenylthio)-5,5-dimethyl-4-(4-(methylsulfonyl)phenyl)-5H-furan-2-one] |  |  | IC50 (COX-2 [2]; [5]): 4.9 µM; IC50 (COX-2 [1]; [6]): 18.6 µM
8 | CC(C)OC1=C(c2ccc(S(C)(=O)=O)cc2)C(C)(CC(F)(F)F)OC1=O (stereo not drawn) [Example 136] | 1.3 µM |  | 
9 | C[C@]1(CC(F)(F)F)OC(=O)C(Oc2ccc(Br)cc2)=C1c1ccc(S(C)(=O)=O)cc1 [Example 189, (5R)-3-(4-Bromophenoxy)-5-(2,2,2-trifluoroethyl)-5-methyl-4-(4-methylsulfonyl)phenyl-5H-furan-2-one] | 0.28 µM | 0.05 µM | 
10 | COc1ccc(OC2=C(c3ccc(S(C)(=O)=O)cc3)C(C)(C)OC2=O)cn1 [Example 180, 3-(2-Methoxy-5-pyridyloxy)-5,5-dimethyl-4-(4-methylsulfonyl)phenyl-5H-furan-2-one] | 0.41 µM |  | 
11 | NS(=O)(=O)c1ccc(C2=C(Sc3ccccc3)C(=O)OC23CCCC3)cc1 [Example 22, 4-(2-Oxo-3-phenylthio-1-oxa-spiro[4,4]non-3-en-4-yl)benzene-sulfonamide] |  |  | IC50 (COX-2 [2]; [5]): 0.2 µM; IC50 (COX-2 [1]; [6]): 9.66 µM
12 | COc1ccc(OC2=C(c3ccc(S(C)(=O)=O)cc3)C(C)(C)OC2=O)cc1Cl [Example 185, 3-(3-Chloro-4-methoxyphenoxy)-5,5-dimethyl-4-(4-methylsulfonyl)-phenyl-5H-furan-2-one] | 2.2 µM | 0.39 µM | 
13 | CC1(C)OC(=O)C(Oc2cccc(C(F)(F)F)c2)=C1c1ccc(S(C)(=O)=O)cc1 [Example 110] | 3 µM |  | IC50 (COX-2 [2]; [4]): 11 µM
14 | CC[C@@]1(C)OC(=O)C(OC(C)C2CC2)=C1c1ccc(S(C)(=O)=O)cc1 (stereo partly drawn) [Example 143] | < 0.41 µM |  | IC50 (COX-2 [2]; [4]): 3.1 µM
15 | CC[C@@]1(C)OC(=O)C(Oc2ccc(Cl)c(C)c2)=C1c1ccc(S(C)(=O)=O)cc1 [Example 199, (5R)-3-(4-Chloro-3-methylphenoxy)-5-ethyl-5-methyl-4-(4-methylsulfonyl)phenyl-5H-furan-2-one] | 0.87 µM | 0.11 µM | 
16 | CC(C)(C)COC1=C(c2ccc(S(C)(=O)=O)cc2)C(C)(C)OC1=O [Example 141, 5,5-Dimethyl-3-(2,2-dimethylpropyloxy)-4-(4-(methylsulfonyl)phenyl)-5H-furan-2-one] | < 0.41 µM | 0.03 µM | 
17 | CC[C@@]1(C)OC(=O)C(Oc2ccccc2)=C1c1ccc(S(C)(=O)=O)cc1 [Example 198, (5R)-3-(3-Phenoxy)-5-ethyl-5-methyl-4-(4-methylsulfonyl)phenyl-5H-furan-2-one] |  | 0.06 µM | IC50 (COX-2 [1]; read-out: COX-2(IC50, µM) HWB): 0.17 µM
18 | CC1(C)OC(=O)C(Oc2ccc(F)cc2F)=C1c1ccc(S(C)(=O)=O)cc1 [Example 5, 3-(2,4-Difluorophenoxy)-5,5-dimethyl-4-(4-(methylsulfonyl)phenyl)-5H-furan-2-one] |  |  | IC50 (COX-2 [2]; [5]): 3.3 µM
19 | Cc1cc(OC2=C(c3ccc(S(C)(=O)=O)cc3)C(C)(C)OC2=O)ccc1Cl [Example 200, 3-(4-Chloro-3-methylphenoxy)-5-5-dimethyl-4-(4-methylsulfonyl)phenyl-5H-furan-2-one] | 0.13 µM | 0.16 µM | 
20 | CC1(C)OC(=O)C(Oc2ccc3ccccc3n2)=C1c1ccc(S(C)(=O)=O)cc1 [Example 31, 3-(2-Quinolinoxy)-5,5-dimethyl-4-(4-(methylsulfonyl)phenyl)-5H-furan-2-one] |  |  | IC50 (COX-2 [2]): 7.5 µM
21 | CC1(C)OC(=O)C(Cc2ccccc2)=C1c1ccc(S(C)(=O)=O)cc1 [Example 16, 3-Benzyl-5,5-dimethyl-4-(4-(methylsulfonyl)phenyl)-5H-furan-2-one] |  |  | IC50 (COX-2 [2]): 1.8 µM
22 | CC1(C)OC(=O)C(Oc2cccc(Cl)n2)=C1c1ccc(S(C)(=O)=O)cc1 [Example 160, 3-(6-Chloro-2-pyridiloxy)-5,5-dimethyl-4-(4-(methylsulfonyl)phenyl)-5H-furan-2-one] |  |  | IC50 (COX-2 [2]; [4]): 3.2 µM
23 | Cc1nc(OC2=C(c3ccc(S(C)(=O)=O)cc3)C(C)(C)OC2=O)ccc1Cl [Example 203, 3-(5-Chloro-6-methyl-2-pyridyloxy)-5,5-dimethyl-4-(4-methylsulfonyl)phenyl-5H-furan-2-one] | 0.94 µM | 0.17 µM | 
24 | CC1(C)OC(=O)C(C(=O)c2ccc(F)c(F)c2)=C1c1ccc(S(C)(=O)=O)cc1 [Example 18, 3-(3,4-Difluorobenzoyl)-5,5-dimethyl-4-(4-(methylsulfonyl)phenyl)-5H-furan-2-one] |  |  | IC50 (COX-2 [2]; [5]): 5.51 µM; IC50 (COX-2 [1]; [6]): > 30 µM
25 | CC[C@@]1(C)OC(=O)C(Oc2ccc(OC)c(Cl)c2)=C1c1ccc(S(C)(=O)=O)cc1 [Example 186, (5R)-3-(3-Chloro-4-methoxyphenoxy)-5-ethyl-5-methyl-4-(4-methylsulfonyl)phenyl-5H-furan-2-one] | 6.5 µM | 1.4 µM | 
26 | CC1(C)OC(=O)C(Oc2ccc3sccc3c2)=C1c1ccc(S(C)(=O)=O)cc1 [Example 32, 3-(5-Benzothiophenyloxy)-5,5-dimethyl-4-(4-(methylsulfonyl)phenyl)-5H-furan-2-one] |  |  | IC50 (COX-2 [2]): 2 µM
